Reference: PMC11048244, “Development of Improved Spectrophotometric Assays for Biocatalytic Silyl Ether Hydrolysis” (Biomolecules, 2024)

The compounds below were run on T1, TF-Silα-Strep (silicatein-α, Silα) (assay: UV-VIS spectrophotometric silyl ether hydrolysis, net initial rates). Conditions: 10% v/v 1,4-dioxane, 50 mM Tris, 100 mM NaCl, pH 8.5.
T1 construct: trigger factor fused at N-terminus, Strep-tag II at C-terminus; recombinant, StrepTrap purified
Assay type: biochemical
Excerpt: UV-VIS spectrophotometric silyl ether hydrolysis, net initial rates on TF-Silα-Strep (silicatein-α, Silα)
Work on `CC(C)(C)[Si](C)(C)Oc1ccc([N+](=O)[O-])cc1` [compound 1, tert-butyldimethyl(4-nitrophenoxy)silane] yielded a Km of 44.4 ± 11.9 µM. For `CC(C)C(C)(C)[Si](C)(C)Oc1ccc([N+](=O)[O-])cc1` [compound 2, 2], the Km was 24.1 ± 5 µM. For `CC(C)[Si](Oc1ccc([N+](=O)[O-])cc1)(C(C)C)C(C)C` [compound 3, 3], the Km was 20.4 ± 8.13 µM. Compound `Cc1cc([N+](=O)[O-])ccc1O[Si](C)(C)C(C)(C)C` [compound 4, tert-Butyldimethyl(2-methyl-4-nitrophenoxy)silane] has a Km of 72.5 ± 15.3 µM. `Cc1cc(O[Si](C)(C)C(C)(C)C)ccc1[N+](=O)[O-]` [compound 5, tert-Butyldimethyl(3-methyl-4-nitrophenoxy)silane] gave a Km of 34.6 ± 4.11 µM.
